In patent US11390648B2, “Peptide” (HYSENSBIO, priority 2017, dated 2022):

System: Dspp gene
Assay: Dspp mRNA level in human dental pulp cells treated with peptide (real-time PCR)
Type: cell-based
Conditions: hDPCs, peptide 10 μg/ml, 48 hours; ratio relative to Dspp mRNA level of untreated control; GAPDH internal control; triplicate
Description: Human dental pulp cells were separated from wisdom teeth of adults (aged 18-22) at the School of Dentistry, Seoul National University. In detail, all experiments were performed after the approval of the Institutional Review Board and the informed consent from patients. Wisdom teeth were fractured according to a method of Jung HS et al. (J Mol Histol.(2011)) to expose the dental pulps, and dental pulp tissues were separated with forceps. Each of the separated dental pulp tissues was cut into small pieces with a razor blade, put in a 60-mm dish, covered with a coverslip, and then cultured in a Dulbecco's modified Eagle's medium. It has been known that human dental pulp cells can differentiate into odontoblast, osteoblast, cementoblast, and periodontal ligament cells under various conditions (Tissue Eng Part A. 2014 April; 20 (7-8): 1342-51).
Total RNA was extracted from human dental pulp cells (hDPCs), and human bone marrow mesenchymal stem cells (hBMSCs) with TRIzol reagent. 2 μg of the total RNA, 1 μl of reverse transcriptase, and 0.5 μg of oligo (oligo; dT) were used to synthesize cDNA. The synthesized cDNA was used in a real-time polymerase chain reaction. The real-time polymerase chain reaction was performed on an ABI PRISM 7500 sequence detection system (Applied Biosystems) and an SYBR GREEN PCR Master Mix (Takara, Japan). The real-time polymerase chain reaction was performed under conditions of 94° C., 1 min; 95° C., 15 sec; 60° C., 34 sec for 40 cycles. Results were analyzed by a comparative cycle threshold (CT) method. And the used primers are as follows (Table 17).
The human dental pulp cells (hDPCs) cultured in Example 3 were treated with the peptides (concentration of 10 μg/ml) of each group synthesized in Example 1-1, and cultured for 48 hours. Then, mRNA levels of an odontoblast differentiation marker Dspp gene expressed in the human dental pulp cells were measured, and a ratio of the measured Dspp mRNA level relative to a Dspp mRNA level measured in a control group was calculated, respectively (Tables 18 to 33).
The expression level of the Dspp gene was measured through RT-PCR and real-time PCR analysis described in Example 1-4. In this regard, GAPDH gene was used as an internal control. The experiments were performed in triplicate, and then mean values and standard deviations thereof were taken as measured values. The base sequence of the primers is described in Table 17 above.

75 (KYRNRRK; Novel peptide) [compound 75]
mRNA level of Dspp gene, Mean: 2.624

76 (KYRNRRR; Novel peptide) [compound 76]
mRNA level of Dspp gene, Mean: 2.394

77 (KYRNKKK; Novel peptide) [compound 77]
mRNA level of Dspp gene, Mean: 1.939

78 (KYRNKRK; Novel peptide) [compound 78]
mRNA level of Dspp gene, Mean: 2.109

79 (KYRNKKR; Novel peptide) [compound 79]
mRNA level of Dspp gene, Mean: 2.403

80 (KYRNKRR; Novel peptide) [compound 80]
mRNA level of Dspp gene, Mean: 2.636

81 (KYKNRKK; Novel peptide) [compound 81]
mRNA level of Dspp gene, Mean: 1.757

82 (KYKNRKR; Novel peptide) [compound 82]
mRNA level of Dspp gene, Mean: 1.909

83 (KYKNRRK; Novel peptide) [compound 83]
mRNA level of Dspp gene, Mean: 2.001

84 (KYKNRRR; Novel peptide) [compound 84]
mRNA level of Dspp gene, Mean: 2.101

85 (KYKNKKK; Novel peptide) [compound 85]
mRNA level of Dspp gene, Mean: 1.838

86 (KYKNKRK; Novel peptide) [compound 86]
mRNA level of Dspp gene, Mean: 1.736

87 (KYKNKKR; Novel peptide) [compound 87]
mRNA level of Dspp gene, Mean: 1.888

88 (KYKNKRR; Novel peptide) [compound 88]
mRNA level of Dspp gene, Mean: 1.539

89 (KYQNRKK; Novel peptide) [compound 89]
mRNA level of Dspp gene, Mean: 1.635

90 (KYQNRKR; Novel peptide) [compound 90]
mRNA level of Dspp gene, Mean: 1.797

91 (KYQNRRK; Novel peptide) [compound 91]
mRNA level of Dspp gene, Mean: 1.913

92 (KYQNRRR; Novel peptide) [compound 92]
mRNA level of Dspp gene, Mean: 1.498

93 (KYQNKKK; Novel peptide) [compound 93]
mRNA level of Dspp gene, Mean: 1.892

94 (KYQNKRK; Novel peptide) [compound 94]
mRNA level of Dspp gene, Mean: 1.487

95 (KYQNKKR; Novel peptide) [compound 95]
mRNA level of Dspp gene, Mean: 1.939

96 (KYQNKRR; Novel peptide) [compound 96]
mRNA level of Dspp gene, Mean: 2.011

97 (KYNQRKK; Novel peptide) [compound 97]
mRNA level of Dspp gene, Mean: 1.515

98 (KYNQRKR; Novel peptide) [compound 98]
mRNA level of Dspp gene, Mean: 1.479

99 (KYNQRRK; Novel peptide) [compound 99]
mRNA level of Dspp gene, Mean: 1.737

100 (KYNQRRR; Novel peptide) [compound 100]
mRNA level of Dspp gene, Mean: 1.599

101 (KYNQKKK; Novel peptide) [compound 101]
mRNA level of Dspp gene, Mean: 1.674

102 (KYNQKRK; Novel peptide) [compound 102]
mRNA level of Dspp gene, Mean: 1.855

103 (KYNQKKR; Novel peptide) [compound 103]
mRNA level of Dspp gene, Mean: 1.737

104 (KYNQKRR; Novel peptide) [compound 104]
mRNA level of Dspp gene, Mean: 1.878

105 (KYNNRKK; Novel peptide) [compound 105]
mRNA level of Dspp gene, Mean: 1.664

106 (KYNNRKR; Novel peptide) [compound 106]
mRNA level of Dspp gene, Mean: 1.673

107 (KYNNRRK; Novel peptide) [compound 107]
mRNA level of Dspp gene, Mean: 1.935

108 (KYNNRRR; Novel peptide) [compound 108]
mRNA level of Dspp gene, Mean: 1.495

109 (KYNNKKK; Novel peptide) [compound 109]
mRNA level of Dspp gene, Mean: 1.756

110 (KYNNKRK; Novel peptide) [compound 110]
mRNA level of Dspp gene, Mean: 1.595

111 (KYNNKKR; Novel peptide) [compound 111]
mRNA level of Dspp gene, Mean: 1.918

112 (KYNNKRR; Novel peptide) [compound 112]
mRNA level of Dspp gene, Mean: 1.699

113 (KYRKRKK; Novel peptide) [compound 113]
mRNA level of Dspp gene, Mean: 1.778

114 (KYRKRKR; Novel peptide) [compound 114]
mRNA level of Dspp gene, Mean: 1.849

115 (KYRKRRK; Novel peptide) [compound 115]
mRNA level of Dspp gene, Mean: 1.707

116 (KYRKRRR; Novel peptide) [compound 116]
mRNA level of Dspp gene, Mean: 1.693

117 (KYRKKKK; Novel peptide) [compound 117]
mRNA level of Dspp gene, Mean: 1.929

118 (KYRKKRK; Novel peptide) [compound 118]
mRNA level of Dspp gene, Mean: 2.015

119 (KYRNKKR; Novel peptide) [compound 119]
mRNA level of Dspp gene, Mean: 2.121

120 (KYRNKRR; Novel peptide) [compound 120]
mRNA level of Dspp gene, Mean: 1.878

121 (KYKKRKK; Novel peptide) [compound 121]
mRNA level of Dspp gene, Mean: 2.024

122 (KYKKRKR; Novel peptide) [compound 122]
mRNA level of Dspp gene, Mean: 1.979

123 (KYKKRRK; Novel peptide) [compound 123]
mRNA level of Dspp gene, Mean: 1.837

124 (KYKKRRR; Novel peptide) [compound 124]
mRNA level of Dspp gene, Mean: 2.017

125 (KYKKKKK; Novel peptide) [compound 125]
mRNA level of Dspp gene, Mean: 2.082

126 (KYKKKRK; Novel peptide) [compound 126]
mRNA level of Dspp gene, Mean: 1.798

127 (KYKKKKR; Novel peptide) [compound 127]
mRNA level of Dspp gene, Mean: 1.888

128 (KYKKKRR; Novel peptide) [compound 128]
mRNA level of Dspp gene, Mean: 1.765
